From ChEMBL document CHEMBL3046825, “Molecular Mechanism for Selective Toxicity of Nicotinoids and Neonicotinoids” (J Pestic Sci, 1995)
The source made the active and inactive calls. The rule behind the calls is not given here.

What was measured:
[1] = Displacement of [3H]alpha-BGT from nAChR in Apis mellifera (honeybee) head
[2] = Displacement of [3H]nicotine from nAChR in Sprague-Dawley Rattus norvegicus (rat) whole brain homogenates; assay type: tissue-based
[3] = biological target: Acetylcholine receptor subunit alpha (Torpedo californica) (UniProt P02710); assay: Increase in [3H]PCP binding to nAChR in Torpedo nobiliana electric organs; details: Electric organ
Chain of Acetylcholine receptor subunit alpha (Torpedo californica) (P02710 whole entry): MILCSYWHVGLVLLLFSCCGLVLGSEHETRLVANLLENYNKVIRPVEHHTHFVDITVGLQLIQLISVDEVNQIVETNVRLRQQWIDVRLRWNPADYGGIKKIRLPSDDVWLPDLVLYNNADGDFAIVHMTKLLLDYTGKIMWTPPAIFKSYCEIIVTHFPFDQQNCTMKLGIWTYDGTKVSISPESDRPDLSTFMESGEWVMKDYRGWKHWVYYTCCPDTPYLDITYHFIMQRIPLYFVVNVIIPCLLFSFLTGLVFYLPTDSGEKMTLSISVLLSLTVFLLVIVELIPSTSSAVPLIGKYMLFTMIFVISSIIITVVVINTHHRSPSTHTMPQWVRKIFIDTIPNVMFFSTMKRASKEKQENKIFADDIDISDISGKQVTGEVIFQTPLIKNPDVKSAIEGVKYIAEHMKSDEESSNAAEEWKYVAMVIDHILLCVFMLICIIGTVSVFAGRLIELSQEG

[4] = biological target: Acetylcholine receptor subunit alpha (Torpedo californica) (UniProt P02710); assay: Increase in [3H]PCP binding to nAChR in Torpedo nobiliana electric organs in presence of carbachol; details: Electric organ
[5] = biological target: Acetylcholine receptor subunit alpha (Torpedo californica) (UniProt P02710); assay: Displacement of [3H]alpha-BGT from nAChR in Torpedo nobiliana electric organs at 300 uM; details: Electric organ
[6] = biological target: Acetylcholine receptor subunit alpha (Torpedo californica) (UniProt P02710); assay: Inhibition of [3H]PCP binding to nAChR in Torpedo nobiliana electric organs in presence of carbachol; details: Electric organ
[7] = biological target: Acetylcholine receptor subunit alpha (Torpedo californica) (UniProt P02710); assay: Displacement of [3H]alpha-BGT from nAChR in Torpedo nobiliana electric organs at 1000 uM; details: Electric organ
Rattus norvegicus = species on record: Rattus norvegicus; assay: Displacement of [3H]nicotine from nAChR in Sprague-Dawley Rattus norvegicus (rat) whole brain homogenates at 1000 uM; assay type: tissue-based
Apis mellifera = assay: Displacement of [3H]alpha-BGT from nAChR in Apis mellifera (honeybee) head at 1000 uM

Structure (SMILES)	IC50 [1]	IC50 [2]	Activity [3]	Activity [4]	other results
O=[N+]([O-])C=C1NCCCS1	1360 µM	109 µM	–	–	–
CN(C)Cc1ccccn1	–	–	Active	inactive	–
CN(C)Cc1cccnc1	–	–	Active	inactive	–
CN(C)Cc1ccncc1	–	–	Active	inactive	–
C/C(=N\C#N)N(C)Cc1ccc(Cl)nc1 [ACETAMIPRID]	8.83 µM	–	–	–	inhibition [5]: 12.6%
c1cncc([C@@H]2CCCCN2)c1 [ANABASINE]	1.98 µM	0.285 µM	–	–	–
C[N+](C)(C)CCOC(N)=O [CARBACHOL]	90.2 µM	0.647 µM	–	–	–
O=[N+]([O-])/N=C1\NCCN1Cc1ccc(Cl)nc1 [IMIDACLOPRID]	1.95 µM	0.984 µM	300%	inactive	inhibition [6]: inactive
CN1CCC[C@H]1c1cccnc1 [NICOTINE]	1.25 µM	0.0096 µM	Active	inactive	–
Cn1cccc1-c1cccnc1 [NICOTYRINE]	> 1000 µM	> 1000 µM	–	–	inhibition [7]: 2.55%; inhibition (Rattus norvegicus): 15.6%; inhibition (Apis mellifera): 1.5%
CCN(Cc1ccc(Cl)nc1)/C(=C/[N+](=O)[O-])NC [NITENPYRAM]	61.3 µM	–	–	–	–
C[N+](C)(C)C [TRETRAMETHYLAMMONIUM IODIDE]	542 µM	–	Active	inactive	–
